Measurements as given in US20230346770A1 (priority 2020, published 2023).

Assay: Phase 1 crossover drug-drug interaction study, plasma pharmacokinetics in healthy adults
Conditions: for median tmax: both periods
[1] = Treatment B (with clarithromycin), Period 1
[2] = Treatment B (with clarithromycin), Period 2

CNCC[C@@](O)(c1cccc2ccccc12)[C@H](c1ccccc1)c1cc2cc(Br)ccc2nc1OC [M2]
AUC72h higher in Period 2 as compared to Period 1 (Treatment A): 41% | AUC240h higher in Period 2 as compared to Period 1 (Treatment A): 46% | Cmax higher in Period 2 as compared to Period 1 (Treatment A): 36% | Cmax (mean) (Treatment A (single dose 100 mg bedaquiline alone), Period 1, n=8): 12.0 ng/mL | Cmax (mean) (Treatment A (single dose 100 mg bedaquiline alone), Period 2, n=8): 16.3 ng/mL | AUC72 h (mean) (Treatment A, Period 1): 637 ng·h/mL | AUC240 h (mean) (Treatment A, Period 1): 1839 ng·h/mL | M/P ratio AUC72 h (M2/bedaquiline, corrected for molecular weight) (Treatment A, Period 1): 0.0481 | M/P ratio AUC240 h (M2/bedaquiline, corrected for molecular weight) (Treatment A, Period 1): 0.110 | M/P ratio Cmax (M2/bedaquiline, corrected for molecular weight) (Treatment A, Period 1): 0.00936 | tmax (median) (Treatment A, Period 1): 12.00 h | AUC72 h (mean) (Treatment A, Period 2): 898 ng·h/mL | AUC240 h (mean) (Treatment A, Period 2): 2691 ng·h/mL | M/P ratio AUC72 h (M2/bedaquiline, corrected for molecular weight) (Treatment A, Period 2): 0.0670 | M/P ratio AUC240 h (M2/bedaquiline, corrected for molecular weight) (Treatment A, Period 2): 0.141 | M/P ratio Cmax (M2/bedaquiline, corrected for molecular weight) (Treatment A, Period 2): 0.0142 | tmax (median) (Treatment A, Period 2): 12.00 h | median tmax (Treatment A): 12.00 h | AUC72h higher in Period 2 as compared to Period 1 (Treatment B): 2.1 fold | AUC240h higher in Period 2 as compared to Period 1 (Treatment B): 2.1 fold | Cmax higher in Period 2 as compared to Period 1 (Treatment B): 2.2 fold | Cmax (mean) (Treatment B (100 mg bedaquiline on Day 5 of clarithromycin 500 mg q12h Days 1-14), Period 1, n=8): 4.66 ng/mL | Cmax (mean) (Treatment B (100 mg bedaquiline on Day 5 of clarithromycin 500 mg q12h Days 1-14), Period 2, n=8): 9.89 ng/mL | AUC72 h (mean) [1]: 260 ng·h/mL | AUC240 h (mean) [1]: 886 ng·h/mL | M/P ratio AUC72 h (M2/bedaquiline, corrected for molecular weight) [1]: 0.0183 | M/P ratio AUC240 h (M2/bedaquiline, corrected for molecular weight) [1]: 0.0460 | M/P ratio Cmax (M2/bedaquiline, corrected for molecular weight) [1]: 0.0039 | tmax (median) [1]: 35.92 h | AUC72 h (mean) [2]: 543 ng·h/mL | AUC240 h (mean) [2]: 1884 ng·h/mL | M/P ratio AUC72 h (M2/bedaquiline, corrected for molecular weight) [2]: 0.0347 | M/P ratio AUC240 h (M2/bedaquiline, corrected for molecular weight) [2]: 0.0881 | M/P ratio Cmax (M2/bedaquiline, corrected for molecular weight) [2]: 0.00798 | tmax (median) [2]: 23.90 h | median tmax (Treatment B (with clarithromycin)): 23.91 h | reduction of AUC72h with clarithromycin co-administration (Treatment B vs Treatment A): 51% | reduction of AUC240h with clarithromycin co-administration (Treatment B vs Treatment A): 42% | reduction of Cmax with clarithromycin co-administration (Treatment B vs Treatment A): 52% | reduction of M/P ratio AUC72h with clarithromycin co-administration (Treatment B vs Treatment A): 56% | reduction of M/P ratio AUC240h with clarithromycin co-administration (Treatment B vs Treatment A): 49% | reduction of M/P ratio Cmax with clarithromycin co-administration (Treatment B vs Treatment A): 52% | time of maximum mean plasma concentration (both treatment groups): 12 hours post-dose | plasma concentration quantifiable until (both treatments): 240 hours post-dose | pre-dose plasma concentration in Period 2 relative to Cmax after the Period 2 single dose (prior to the Period 2 single dose of bedaquiline (carry-over)): > 10%
